Source: US8338587B2, “Compounds” (AstraZeneca AB, priority 2009, dated 2012)
pIC50: −log10 of the molar value.

Molecular target: T1, recombinant human GR (Homo sapiens, UniProt P04150)
T1 construct: purchased Panvera/Invitrogen P2812 (kit P2893)
T1 sequence (P04150 1-777): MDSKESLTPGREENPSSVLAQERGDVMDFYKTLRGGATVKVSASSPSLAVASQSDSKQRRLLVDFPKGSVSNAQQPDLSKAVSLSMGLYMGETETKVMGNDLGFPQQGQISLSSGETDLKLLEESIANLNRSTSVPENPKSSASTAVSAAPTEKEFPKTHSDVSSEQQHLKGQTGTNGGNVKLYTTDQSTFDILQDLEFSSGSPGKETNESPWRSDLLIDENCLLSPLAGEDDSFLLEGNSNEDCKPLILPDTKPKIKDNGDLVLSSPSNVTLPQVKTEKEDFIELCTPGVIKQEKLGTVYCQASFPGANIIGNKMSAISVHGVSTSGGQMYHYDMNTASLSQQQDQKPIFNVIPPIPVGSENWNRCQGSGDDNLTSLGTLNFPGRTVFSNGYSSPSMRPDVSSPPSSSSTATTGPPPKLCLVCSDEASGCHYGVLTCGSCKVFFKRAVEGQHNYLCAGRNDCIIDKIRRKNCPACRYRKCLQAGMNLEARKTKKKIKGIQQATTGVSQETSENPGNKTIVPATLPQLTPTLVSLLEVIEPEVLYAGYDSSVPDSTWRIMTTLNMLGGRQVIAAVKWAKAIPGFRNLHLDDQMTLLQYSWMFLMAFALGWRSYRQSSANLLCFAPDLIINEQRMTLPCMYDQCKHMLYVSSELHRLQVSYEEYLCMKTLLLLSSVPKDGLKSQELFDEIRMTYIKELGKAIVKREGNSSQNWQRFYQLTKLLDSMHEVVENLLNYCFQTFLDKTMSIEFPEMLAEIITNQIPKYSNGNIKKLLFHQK
Assay: Human Glucocorticoid Receptor (GR) Assay (fluorescence polarization competition, Panvera/Invitrogen kit)
Conditions: GS Red Fluoromone tracer, 2 hours at room temperature, 100% control 10 μM Dexamethasone, read-out: Inhibition of GR binding, IC50
Protocol: Human Glucocorticoid Receptor (GR) Assay The assay is based on a commercial kit from Panvera/Invitrogen (Part number P2893). The assay technology is fluorescence polarization. The kit utilises recombinant human GR (Panvera, Part number P2812), a Fluoromone™ labelled tracer (GS Red, Panvera, Part number P2894) and a Stabilizing Peptide 10× (Panvera, Part number P2815). The GR and Stabilizing Peptide reagents are stored at −70° C. while the GS Red is stored at −20° C. Also included in the kit are 1M DTT (Panvera, Part number P2325, stored at −20° C.) and GR Screening buffer 10× (Panvera, Part number P2814, stored at −70° C. initially but once thawed stored at room temperature). Avoid repeated freeze/thaws for all reagents. The GR Screening buffer 10× comprises 100 mM potassium phosphate, 200 mM sodium molybdate, 1 mM EDTA and 20% DMSO. Test compounds (1 μL) and controls (1 μL) in 100% DMSO were added to black is polystyrene 384-well plates (Greiner low volume black flat-bottom, part number 784076). 0% control was 100% DMSO and 100% control was 10 μM Dexamethasone. Background solution (8 μL; assay buffer 10×, Stabilizing Peptide, DTT and ice cold MQ water) was added to the background wells. GS Red solution (7 μL; assay buffer 10×, Stabilizing Peptide, DTT, GS Red and ice cold water) was added to all wells except background wells. GR solution (7 μL; assay buffer 10×, Stabilizing Peptide, DTT, GR and ice cold water) was added to all wells. The plate was sealed and incubated in a dark at room temperature for 2 hours. The plate was read in an Analyst plate reader (LJL Biosystems/Molecular Devices Corporation) or other similar plate reader capable of recording fluorescence polarization (excitation wavelength 530 nm, emission wavelength 590 nm and a dichroic mirror at 561 nm).

Row | SMILES | pIC50
1 | COCC(=O)O[C@]1(C(=O)SCF)CC[C@H]2[C@@H]3C[C@H](C)C4=Cc5c(cnn5-c5ccc(F)nc5)C[C@]4(C)[C@H]3[C@@H](O)C[C@@]21C [Example 8, (1R,3aS,3bS,5S,10aR,10bS,11S,12aS)-1-{[(Fluoromethyl)sulfanyl]carbonyl}-7-(6-fluoropyridin-3-yl)-11-hydroxy-5,10a,12a-trimethyl-1,2,3,3a,3b,4,5,7,10,10a,10b,11,12,12a-tetradecahydrocyclopenta[5,6]naphtho[1,2-f]indazol-1-yl methoxyacetate] | 9.03
2 | C[C@]12Cc3cnn(-c4ccc(F)nc4)c3C=C1CC[C@H]1[C@@H]3CC[C@](OC(=O)C4CCOC4)(C(=O)SCF)[C@@]3(C)C[C@H](O)[C@@]12F (single isomer, unassigned) [16 (S)/(R) isomer] | 8.89
3 | C[C@@H]1C[C@H]2[C@@H]3CCC4=Cc5c(cnn5-c5ccc(F)nc5)C[C@]4(C)[C@@]3(F)[C@@H](O)C[C@]2(C)[C@@]1(OC(=O)c1cocn1)C(=O)SCF [Example 4, (1R,2R,3aS,3bS,10aS,10bR,11S,12aS)-10b-Fluoro-1-{[(fluoromethyl)sulfanyl]carbonyl}-7-(6-fluoropyridin-3-yl)-11-hydroxy-2,10a,12a-trimethyl-1,2,3,3a,3b,4,5,7,10,10a,10b,11,12,12a-tetradecahydrocyclopenta[5,6]naphtho[1,2-f]indazol-1-yl 1,3-oxazole-4-carboxylate] | 8.55
4 | CCC(=O)O[C@]1(C(=O)SCC#N)CC[C@H]2[C@@H]3C[C@H](C)C4=Cc5c(cnn5-c5ccc(F)nc5)C[C@]4(C)[C@H]3[C@@H](O)C[C@@]21C [Example 23, (1R,3aS,3bS,5S,10aR,10bS,11S,12aS)-1-{[(Cyanomethyl)sulfanyl]carbonyl}-7-(6-fluoropyridin-3-yl)-11-hydroxy-5,10a,12a-trimethyl-1,2,3,3a,3b,4,5,7,10,10a,10b,11,12,12a-tetradecahydrocyclopenta[5,6]naphtho[1,2-f]indazol-1-yl propanoate] | 9.00
5 | C[C@H]1C[C@@H]2[C@H]([C@@H](O)C[C@@]3(C)[C@H]2CC[C@]3(OC(=O)C2CC2)C(=O)SCF)[C@@]2(C)Cc3cnn(-c4ccc(F)nc4)c3C=C12 [Example 25, (1R,3aS,3bS,5S,10aR,10bS,11S,12aS)-1-{[(Fluoromethyl)sulfanyl]carbonyl}-7-(6-fluoropyridin-3-yl)-11-hydroxy-5,10a,12a-trimethyl-1,2,3,3a,3b,4,5,7,10,10a,10b,11,12,12a-tetradecahydrocyclopenta[5,6]naphtho[1,2-f]indazol-1-yl cyclopropanecarboxylate] | 8.92
6 | C[C@H]1C[C@@H]2[C@H]([C@@H](O)C[C@@]3(C)[C@H]2CC[C@]3(OC(=O)c2ccco2)C(=O)SCC#N)[C@@]2(C)Cc3cnn(-c4ccc(F)nc4)c3C=C12 [Example 22, (1R,3aS,3bS,5S,10aR,10bS,11S,12aS)-1-{[(Cyanomethyl)sulfanyl]carbonyl}-7-(6-fluoropyridin-3-yl)-11-hydroxy-5,10a,12a-trimethyl-1,2,3,3a,3b,4,5,7,10,10a,10b,11,12,12a-tetradecahydrocyclopenta[5,6]naphtho[1,2-f]indazol-1-yl furan-2-carboxylate] | 8.77
7 | C[C@H]1C[C@@H]2[C@H]([C@@H](O)C[C@@]3(C)[C@H]2CC[C@]3(OC(=O)c2cocn2)C(=O)SCF)[C@@]2(C)Cc3cnn(-c4ccc(F)nc4)c3C=C12 [Example 9, (1R,3aS,3bS,5S,10aR,10bS,11S,12aS)-1-{[(Fluoromethyl)sulfanyl]carbonyl}-7-(6-fluoropyridin-3-yl)-11-hydroxy-5,10a,12a-trimethyl-1,2,3,3a,3b,4,5,7,10,10a,10b,11,12,12a-tetradecahydrocyclopenta[5,6]naphtho[1,2-f]indazol-1-yl 1,3-oxazole-4-carboxylate] | 8.82

Continued by rising pIC50, values first:

Row | pIC50 | SMILES
8 | 7.82 | C[C@@H]1C[C@H]2[C@@H]3CCC4=Cc5c(cnn5-c5ccc(F)cc5)C[C@]4(C)[C@@]3(F)[C@@H](O)C[C@]2(C)[C@@]1(OC(=O)c1cocn1)C(=O)SCF [Example 28, (1R,2R,3aS,3bS,10aS,10bR,11S,12aS)-10b-Fluoro-1-{[(fluoromethyl)sulfanyl]carbonyl}-7-(4-fluorophenyl)-11-hydroxy-2,10a,12a-trimethyl-1,2,3,3a,3b,4,5,7,10,10a,10b,11,12,12a-tetradecahydrocyclopenta[5,6]naphtho[1,2-f]indazol-1-yl 1,3-oxazole-4-carboxylate]
9 | 7.96 | CCC(=O)O[C@]1(C(=O)SCF)[C@H](C)C[C@H]2[C@@H]3CCC4=Cc5c(cnn5-c5ccc(F)cc5)C[C@]4(C)[C@@]3(F)[C@@H](O)C[C@@]21C [Example 5, (1R,2R,3aS,3bS,10aS,10bR,11S,12aS)-10b-Fluoro-1-{[(fluoromethyl)sulfanyl]carbonyl}-7-(4-fluorophenyl)-11-hydroxy-2,10a,12a-trimethyl-1,2,3,3a,3b,4,5,7,10,10a,10b,11,12,12a-tetradecahydrocyclopenta[5,6]naphtho[1,2-f]indazol-1-yl propanoate]
10 | 8.11 | COCC(=O)O[C@]1(C(=O)SCF)[C@H](C)C[C@H]2[C@@H]3CCC4=Cc5c(cnn5-c5ccc(F)cc5)C[C@]4(C)[C@@]3(F)[C@@H](O)C[C@@]21C [Example 6, (1R,2R,3aS,3bS,10aS,10bR,11S,12aS)-10b-Fluoro-1-{[(fluoromethyl)sulfanyl]carbonyl}-7-(4-fluorophenyl)-11-hydroxy-2,10a,12a-trimethyl-1,2,3,3a,3b,4,5,7,10,10a,10b,11,12,12a-tetradecahydrocyclopenta[5,6]naphtho[1,2-f]indazol-1-yl methoxyacetate]
11 | 8.22 | COCC(=O)O[C@]1(C(=O)SCC#N)[C@H](C)C[C@H]2[C@@H]3CCC4=Cc5c(cnn5-c5ccc(F)cc5)C[C@]4(C)[C@@]3(F)[C@@H](O)C[C@@]21C [Example 27, (1R,2R,3aS,3bS,10aS,10bR,11S,12aS)-10b-Fluoro-1-{[(cyanomethyl)sulfanyl]carbonyl}-7-(4-fluorophenyl)-11-hydroxy-2,10a,12a-trimethyl-1,2,3,3a,3b,4,5,7,10,10a,10b,11,12,12a-tetradecahydrocyclopenta[5,6]naphtho[1,2-f]indazol-1-yl methoxyacetate]
12 | 8.72 | CCC(=O)O[C@]1(C(=O)SCF)CC[C@H]2[C@@H]3C[C@H](C)C4=Cc5c(cnn5-c5ccc(F)nc5)C[C@]4(C)[C@H]3[C@@H](O)C[C@@]21C [Example 7, (1R,3aS,3bS,5S,10aR,10bS,11S,12aS)-1-{[(Fluoromethyl)sulfanyl]carbonyl}-7-(6-fluoropyridin-3-yl)-11-hydroxy-5,10a,12a-trimethyl-1,2,3,3a,3b,4,5,7,10,10a,10b,11,12,12a-tetradecahydrocyclopenta[5,6]naphtho[1,2-f]indazol-1-yl propanoate]
13 | 9.00 | C[C@]12Cc3cnn(-c4ccc(F)nc4)c3C=C1CC[C@H]1[C@@H]3CC[C@](OC(=O)[C@H]4CCCO4)(C(=O)SCC#N)[C@@]3(C)C[C@H](O)[C@@]12F [Example 12, (1R,3aS,3bS,10aS,10bR,11S,12aS)-1-{[(Cyanomethyl)sulfanyl]carbonyl}-10b-fluoro-7-(6-fluoropyridin-3-yl)-11-hydroxy-10a,12a-dimethyl-1,2,3,3a,3b,4,5,7,10, 10a,10b,11,12,12a-tetradecahydrocyclopenta[5,6]naphtho[1,2-f]indazol-1-yl (2R)-tetrahydrofuran-2-carboxylate]
14 | 9.24 | C[C@]12Cc3cnn(-c4ccc(F)nc4)c3C=C1CC[C@H]1[C@@H]3CC[C@](OC(=O)C4CCOC4)(C(=O)SCC#N)[C@@]3(C)C[C@H](O)[C@@]12F (single isomer, unassigned) [15 (S)/(R) isomer]
